Data published in patent US9170257B2 (priority 2012, dated 2015).
Where two headings read alike, the source gives them in different places.

Assay: Plasma pharmacokinetics of curcumin and THC during and after intravenous infusion of liposomal curcumin
Assay type: in vivo, Beagle dogs
Experimental: The results and analysis for the study are presented for intravenous infusion dosing of a total dose of 10 mg/kg infused over a period of either 2 or 8 hours. Plasma levels of curcumin and its metabolite, THC were measured at timed intervals post-dosing.
For the 2 hour infusion, blood samples were taken at predose and 0.25, 0.5, 1.5 and at 2 hours during infusion and at 15 minutes post-infusion. For the 8 hour infusion, blood samples were taken at predose and 0.25, 0.5, 1.5, […] and at 8 hours during infusion and at 15 minutes post-infusion.
Bioanalysis was performed on two sets of samples, one set that was treated with phosphoric acid and one set that was not treated with phosphoric acid. […] Values that were below the limit of quantification were assigned a value of 0.
Plasma concentration vs. time profiles were analyzed using (unless otherwise stated) the data from 4 dogs. Plasma profiles for the test articles are presented as the mean data±SE of 4 dogs. Average plasma concentrations were used to perform the PK analysis. Plasma concentration vs. time profiles were analyzed and the PK parameters estimated using WinNonlin Version 5.2.1 employing the intravenous infusion model with first order elimination. Unless stated otherwise, the plasma concentration-time profiles for the test articles are presented as the mean data±SE of 4 dogs.

[1] = both sexes, Beagle, dog, in vivo, 10 mg/kg, 1.25 mg/kg/hr, mean±SE, read-out: [Plasma + PO4]
[2] = both sexes, Beagle, dog, in vivo, 10 mg/kg, 1.25 mg/kg/hr, mean±SE, read-out: [Plasma]
[3] = both sexes, Beagle, dog, in vivo, 10 mg/kg, 5 mg/kg/hr, mean±SE, read-out: [Plasma + PO4]
[4] = both sexes, Beagle, dog, in vivo, 10 mg/kg, 5 mg/kg/hr, mean±SE, read-out: [Plasma]

COc1cc(CCC(=O)CC(=O)CCc2ccc(O)c(OC)c2)ccc1O [THC, tetrahydrocurcumin]
Ke (2 hour i.v. infusion, total dose 10 mg/kg, fitted): 1.4 h⁻¹
ratio of THC to curcumin based on AUC (2 hour infusion): 9.6
ratio of THC to curcumin based on AUC (8 hour infusion): 6.3
Plasma THC levels higher than curcumin (at both infusion rates (2 and 8 hours)): 6.3-9.6 fold
concentration at 15 min [1]: 59 ± 24 ng/mL
concentration at 15 min [2]: 72 ± 15 ng/mL
concentration at 30 min [1]: 121 ± 28 ng/mL
concentration at 30 min [2]: 63 ± 15 ng/mL
concentration at 90 min [1]: 293 ± 73 ng/mL
concentration at 90 min [2]: 64 ± 14 ng/mL
concentration at 2 hr [1]: 226 ± 64 ng/mL
concentration at 2 hr [2]: 68 ± 11 ng/mL
concentration at 4 hr [1]: 193 ± 127 ng/mL
concentration at 4 hr [2]: 77 ± 8 ng/mL
concentration at 6 hr [1]: 64 ± 10 ng/mL
concentration at 6 hr [2]: 0 ng/mL
concentration at 8 hr [1]: 62 ± 26 ng/mL
concentration at 8 hr [2]: 67 ± 29 ng/mL
concentration at 15 min [3]: 284 ± 89 ng/mL
concentration at 15 min [4]: 483 ± 50 ng/mL
concentration at 30 min [3]: 1120 ± 318 ng/mL
concentration at 30 min [4]: 566 ± 77 ng/mL
concentration at 90 min [3]: 2350 ± 441 ng/mL
concentration at 90 min [4]: 891 ± 238 ng/mL
concentration at 2 hr [4]: 454 ± 79 ng/mL
AUC (both sexes, Beagle, dog, in vivo, iv, 10 mg/kg, 2 hr infusion + phosphate, AUC to 15 min post-infusion, read-out: AUC): 3800 ng·h/mL
AUC (both sexes, Beagle, dog, in vivo, iv, 10 mg/kg, 8 hr infusion + Phosphate, AUC to 15 min post-infusion, read-out: AUC): 1170 ng·h/mL
AUC (both sexes, Beagle, dog, in vivo, iv, 10 mg/kg, 8 hr infusion, 10 mg/kg, plasma without phosphoric acid, AUC to 15 min post-infusion, read-out: AUC): 411 ng·h/mL
Cmax (both sexes, Beagle, dog, in vivo, iv, 10 mg/kg, 8 hr infusion, plasma without phosphoric acid, observed, read-out: Cmax): 77 ng/mL
concentration at 2 h (both sexes, beagle, dog, in vivo, 10 mg/kg, 5 mg/kg/hr, 2 hr (end of infusion), mean±SE, read-out: [Plasma + PO4]): 2980 ± 852 ng/mL
AUC (both sexes, beagle, dog, in vivo, iv, 10 mg/kg, 2 hour i.v. infusion, total dose 10 mg/kg, fitted, first-order elimination infusion model, read-out: AUC (estimated PK parameter)): 5180 ng·h/mL
Cmax (both sexes, beagle, dog, in vivo, iv, 10 mg/kg, 2 hour i.v. infusion, total dose 10 mg/kg, fitted, first-order elimination infusion model, read-out: Cmax (estimated PK parameter)): 2430 ng/mL
AUC (both sexes, beagle, dog, in vivo, iv, 10 mg/kg, 2 hour infusion, + phosphoric acid, read-out: calculated AUC (observed)): 3800 ng·h/mL
Cmax (both sexes, beagle, dog, in vivo, iv, 10 mg/kg, 2 hr infusion + phosphate, observed, read-out: Cmax): 2980 ng/mL
AUC (both sexes, beagle, dog, in vivo, iv, 10 mg/kg, 2 hr infusion, 10 mg/kg, plasma without phosphoric acid, AUC to 15 min post-infusion, read-out: AUC): 1320 ng·h/mL
Cmax (both sexes, beagle, dog, in vivo, iv, 10 mg/kg, 2 hr infusion, plasma without phosphoric acid, observed, read-out: Cmax): 891 ng/mL
Cmax (both sexes, beagle, dog, in vivo, iv, 10 mg/kg, 8 hr infusion + Phosphate, observed, read-out: Cmax): 293 ng/mL
MRT (both sexes, beagle, dog, in vivo, iv, 2 hour i.v. infusion, total dose 10 mg/kg, fitted, read-out: MRT): 42 min
half-life (both sexes, beagle, dog, in vivo, iv, 2 hour i.v. infusion, total dose 10 mg/kg, fitted, read-out: t1/2(e) (converted)): 30 min
ratio of plasma THC to curcumin (two infusion rates): 6.3-9.6
